# From patent US10071103B2, “Treatments for resistant acne” (VYOME BIOSCIENCES PVT. LTD., priority 2014, dated 2018)
# Entries after “also recorded” stand apart in the source; their conditions may differ. Read-outs that look alike come from different tables or passages of the source.
# What was measured:
# THP-1 cells = assay: Viability of THP-1 cells under treatment; assay type: cell-based; details: 25 μg/ml of compound 91
# P. acnes CCARM 9010 = assay: MIC by micro broth dilution (Alamar blue), clindamycin-resistant/nonresponsive P. acnes; assay type: cell-based, Propionibacterium acnes; details: for Activity / bacterial killing, dose response curve (in words): clindamycin-nonresponsive CCARM 9010
# IL-8 = assay: P. acnes-induced IL-8 release in THP-1 cells (ELISA); assay type: cell-based; details: 25 μg/ml
# E. coli DNA gyrase = molecular target: T1, E. coli DNA gyrase (Escherichia coli, UniProt P0AES4+P0AES6); assay: DNA gyrase super-coiling activity assay (Topogen kit, relaxed pHOT1 plasmid); assay type: biochemical; details: for Super-coiled band (percentage of DNA super-coiling): untreated control 100%; for Inhibition of super-coiling activity of DNA gyrase (in words): 1 μM and 2.5 μM
# T1 construct: purchased Topogen Inc
# T1 sequence (P0AES4 whole entry, one chain of several): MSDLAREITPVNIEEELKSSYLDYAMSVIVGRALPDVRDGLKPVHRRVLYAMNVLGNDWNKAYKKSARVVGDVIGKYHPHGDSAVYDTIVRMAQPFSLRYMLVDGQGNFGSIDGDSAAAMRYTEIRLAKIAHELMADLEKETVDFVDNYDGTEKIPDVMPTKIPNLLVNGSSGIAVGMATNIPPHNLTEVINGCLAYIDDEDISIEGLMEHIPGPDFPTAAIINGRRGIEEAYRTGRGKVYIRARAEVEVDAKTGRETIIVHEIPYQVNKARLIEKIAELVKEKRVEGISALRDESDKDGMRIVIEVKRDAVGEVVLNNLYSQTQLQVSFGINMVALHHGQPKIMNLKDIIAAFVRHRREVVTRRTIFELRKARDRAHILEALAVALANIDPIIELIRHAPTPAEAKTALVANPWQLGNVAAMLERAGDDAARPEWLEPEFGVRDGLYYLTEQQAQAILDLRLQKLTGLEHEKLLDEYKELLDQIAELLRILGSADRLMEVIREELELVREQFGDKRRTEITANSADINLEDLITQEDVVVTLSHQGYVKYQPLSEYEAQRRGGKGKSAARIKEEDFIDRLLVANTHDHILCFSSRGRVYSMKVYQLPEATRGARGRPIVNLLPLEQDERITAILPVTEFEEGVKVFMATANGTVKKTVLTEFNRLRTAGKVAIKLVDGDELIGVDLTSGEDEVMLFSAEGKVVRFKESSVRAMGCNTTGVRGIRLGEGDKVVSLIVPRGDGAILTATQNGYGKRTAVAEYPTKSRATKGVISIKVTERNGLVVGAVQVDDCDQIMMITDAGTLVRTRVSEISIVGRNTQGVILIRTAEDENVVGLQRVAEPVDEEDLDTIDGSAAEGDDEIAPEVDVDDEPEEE
# Experimental: DNA super-coiling activity was assayed using DNA gyrase assay kit (Topogen Inc.) with relaxed pHOT1 E. coli plasmid DNA according to manufacturer's protocol. The standard reaction mixture (20 μl) contained 35 mM Tris-HCl (pH 7.5), 24 mM KCl, 4 mM MgCl2, 2 mM dithiothreitol, 1.8 mM spermidine, 1 mM ATP, 6.5% glycerol, 0.1 mg/ml bovine serum albumin (BSA), 10 μg/ml relaxed pHOT1 plasmid DNA and 1 U of DNA gyrase. The reaction mixture was incubated at 37° C. for 1 h in presence of selected compounds/fluoroquinolone at different concentrations. The reaction was terminated by addition of ⅕ volume of loading dye (4 μl) followed by proteinase K (50 μg/ml) and again incubated at 37° C. for half an hour. 20 μl chloroform/isoamyl alcohol (24:1) was added to each tube and vortexed briefly. Thereafter, the blue aqueous phase was separated out and analyzed by 1% agarose gel electrophoresis. The gel was stained by ethidium bromide for half an hour and destained with water for 15 mins. The gel was then visualized in a trans-illuminator and photographed.
# P. acnes MTCC 1951 = assay type: cell-based, Propionibacterium acnes; details: for MPC/MIC: ratio against P. acnes
# Experimental: 3 to 4 Petri plates containing 48 h P. acnes culture was suspended in sterile Phosphate buffer saline, PBS (pH 7.2) and turbidity was adjusted to optical density of 1 at 600 nm (10^9 cells/ml). 50 ml of this culture suspension was centrifuged at 4000 rpm for 40 min. The supernatant was discarded and pellet resuspended in 250 μl of sterile PBS. 50 μl of these cell suspensions (10^10 cells) was spread over the plates containing various concentrations of antibiotics (around MIC range). Plates were incubated at 37° C. for 48 h and the lowest concentration of the drug that allowed no growth was taken as its MPC.
# IL-1β = assay: P. acnes-induced IL-1β release in THP-1 cells (ELISA); assay type: cell-based; details: 25 μg/ml, 100% = P. acnes induced cells
# Experimental: Method: Preparation of Stimulant for Inflammation: P. acnes culture suspension was prepared in PBS and the cell number in the suspension was adjusted to approximately 5×10^8 CFU/ml by measuring the cell density using a Densimat. The bacterial suspension was then heat killed at 80° C. for 30 min and stored at −80° C. until further use.
# Cells were seeded in a 96-well format (2×10^5 THP-1 cells per well) in media containing 10% FBS. The cells were stimulated to induce inflammatory cytokines using 3 McFarland equivalent heat-killed P. acnes. Cells in control wells were treated with PBS. One hour after induction with P. acnes, test agents were added to the induced cells at appropriate concentrations to be tested (compound 91 at 25 μg/ml). The plates were incubated at 37° C. for 24 hours. After 24 h, the plates were centrifuged to pellet the cells and the supernatants were collected. The cell culture supernatants thus obtained were analyzed for levels of cytokines (IL-1α, IL-1β, IL-6 and IL-8) by ELISA using R&D Systems kits for individual cytokines following the manufacturer's instructions.
compound,measurement,setting,value
"Cc1ncc([N+](=O)[O-])n1CC(O)CN1CCN(c2cc3c(cc2F)c(=O)c(C(=O)O)c2n3C(C)S2)CC1 (stereo not drawn) [Compound 91, 6-Fluoro-7-{4-[2-hydroxy-3-(2-methyl-5-nitro-imidazol-1-yl)-propyl]-piperazin-1-yl}-1-methyl-4-oxo-4H-2-thia-8b-aza-cyclobuta[a]naphthalene-3-carboxylic acid]",Viability of THP-1 cells,THP-1 cells,90%
same,MIC,"P. acnes CCARM 9010; Cutibacterium acnes, CCARM9010, read-out: MIC Resistant P. acnes (9010) strain",0.1 µg/mL
same,"Activity / bacterial killing, dose response curve (in words)",P. acnes CCARM 9010,highly efficacious bacterial killing profile
same,"Activity / bacterial killing, dose response curve (in words)",P. acnes CCARM 9010; listed as compound 91,lower MIC value and faster bacterial killing profile
same,Effect on IL-8 levels (in words),IL-8; P. acnes-induced THP-1 cells,did not have an effect
same,Percentage reduction in P. acnes induced IL-8 release,"IL-8; THP-1 cells, 100% = P. acnes induced cells",14.65%
same,Super-coiled band (percentage of DNA super-coiling),E. coli DNA gyrase; 0.25 μM,around 54.3%
same,Inhibition of super-coiling activity of DNA gyrase (in words),E. coli DNA gyrase,best gyrase inhibiting activity; also recorded: greater efficacy
same,Inhibition of super-coiling activity of DNA gyrase (in words),E. coli DNA gyrase; listed as compound 91,able to inhibit the super-coiling activity; also recorded: highly potent; also recorded: better efficacy; also recorded: most potent
same,Super-coiled band (percentage of DNA super-coiling),E. coli DNA gyrase; 5 μM,about 2%
same,MPC,"P. acnes MTCC 1951; P. acnes, 10^10 cells inoculum",0.3 to 0.6 µg/mL
same,MPC/MIC,P. acnes MTCC 1951,1.5-3
same,MPC/MIC,P. acnes MTCC 1951; listed as compound 91,1.5
same,Percentage reduction in P. acnes induced IL-1β release,IL-1β,20.49%
same,Percentage reduction in P. acnes induced IL-1β release,IL-1β; listed as compound 91,20-25%
